Measured values: patent publication US11932638B2, “Ion channel inhibitor compounds for cancer treatment” (Centre National de la Recherche Scientifique, priority 2017, dated 2024)

Biological target: T1, SK3 channel (Rattus norvegicus, UniProt P70605)
T1 construct: expressed in transfected cells
Test: Conventional manual patch clamp on HEK-rSK3 cells, SK3 channel activity
Assay type: cell-based
Conditions: for inhibition at 0.05 µM: 50 nM; for inhibition at 0.5 µM: 500 nM; for inhibition at 0.1 µM: 100 nM
Description: Cell Lines Used to Screen the Molecules on the Activity of SKCa Channels (Small Conductance Calcium-Activated Potassium Channel; SK1, SK2 and SK3) and IKCa Channels (Intermediate Conductance Calcium-Activated Potassium Channel, SK4)
Use was made of the HEK 293 T line, a foetal kidney line which was immortalised with the T antigen of the […] simian virus. This cell line is widely used on account of the ease with which these cells can be transfected with plasmids or other transfection vectors. Four stable lines were used for patch clamp experiments: HEK-hSK1, HEK-rSK2, HEK-rSK3 and HEK-IKCa/SK4 which respectively overexpress the SK1, SK2, SK3 and SK4 channels. The lines were obtained via stable transduction (Girault et al., Current Cancer Drug Targets, 2011, 11, 1111-25) and are those already routinely used to assay SK3 modulators (Potier et al. Br J Pharmacol. 2011 January; 162(2):464-79; Sevrain et al., Med. Chem. Commun., 2012, 3, 1471-1478; Sevrain et al., Organic & Biomolecular Chemistry, 2013 Jul. 21; 11(27):4479-87, Berthe W, Sevrain C M, Chantôme A, Bouchet A M, Gueguinou M, Fourbon Y, Potier-Cartereau M, Haelters J P, Couthon-Gourvès H, Vandier C, Jaffrès P A. ChemMedChem. 2016 Jul. 19; 11(14):1531-9). […] These lines therefore enabled us without difficulty to examine the effect of the molecules on the SK3 channel, and also the selectivity thereof by means of the patch clamp technique. The inhibitory activity of the non-toxic molecules was assayed on the activity of the SK3 channel. The selectivity of the molecules was determined by patch clamp on HEK cell models stably expressing the SK3 channel but also the SK1, SK2, SK3 or IKCa/SK4 channels.
Electrophysiology/Patch-Clamp
Patch clamp is a technique allowing measurement of the activity of ion channels by recording macroscopic (whole cell configuration) or microscopic (e.g. inside out configuration) ionic currents through the plasma membrane. For assay of the effect of the molecules on the SKCa/IKCa channels, two complementary techniques were used: conventional, manual patch clamp and automated patch clamp with the Nanion NPC-16 Patchliner Quattro (4 channels) (Potier et al., Mol Cancer Ther 2006, 5, 2946-53; Chantome et al., Exp Cell Res 2009, 315, 3620-30; Potier et al., Biochem Biophys Res Commun 2010, 397, 42-7; Girault et al., Current Cancer Drug Targets, 2011, 11, 1111-25; Sevrain et al., Med. Chem. Commun., 2012, 3, 1471-1478; Sevrain et al., Organic & Biomolecular Chemistry, 2013 Jul. 21; 11(27):4479-87; Chantome et al., Cancer Research, 2013 Aug. 1; 73(15):4852-61, Gueguinou M, Crottès D, Chantôme A, Rapetti-Mauss R, Potier-Cartereau M, Clarysse L, Girault A, Fourbon Y, Jézéquel P, Guérin-Charbonnel C, Fromont G, Martin P, Pellissier B, Schiappa R, Chamorey E, Mignen O, Uguen A, Borgese F, Vandier C, Soriani O. Oncogene. 2017 Jan. 23. doi: 10.1038/onc.2016.501, Berthe W, Sevrain C M, Chantôme A, Bouchet A M, Gueguinou M, Fourbon Y, Potier-Cartereau M, Haelters J P, Couthon-Gourvès H, Vandier C, Jaffrès P A. ChemMedChem. 2016 Jul. 19; 11(14):1531-9, Guéguinou M, Harnois T, Crottes D, Uguen A, Deliot N, Gambade A, Chantôme A, Haelters J P, Jaffrès P A, Jourdan M L, Weber G, Soriani O, Bougnoux P, Mignen O, Bourmeyster N, Constantin B, Lecomte T, Vandier C, Potier-Cartereau M. Oncotarget. 2016 Jun. 14; 7(24):36168-36184. doi: 10.18632/oncotarget.8786).
For conventional patch clamp, the micropipette is filled with an intrapipette medium—IPM (see composition below) and allows measurement of ionic currents at the same time as allowing maintaining of membrane potential (voltage clamp). The experimental device was composed of an anti-vibration table supporting an inverted microscope (Nikon, Eclipse TE 300). The Petri dish (Corning Incorporated, USA), containing the cells was placed on a plexiglass plate attached to the microscope stage. The pipette was connected to the amplifier (Axopatch 200B) as reference electrode which allowed closing of the electrical circuit. […]

| SMILES | inhibition at 10 µM [%] | inhibition at 0.05 µM [%] | inhibition at 0.5 µM [%] | inhibition at 0.1 µM [%] | other results |
| --- | --- | --- | --- | --- | --- |
| Clc1ccc(CNc2ncc3ncccc3n2)cc1Cl [Compound 4, N-(3,4-Dichlorobenzyl)pyrido[3,2-d]pyrimidin-2-amine] | 3.6 |  |  |  |  |
| c1ccc2c(c1)CCCC2Nc1ncc2ncccc2n1 (centres unmarked) [Compound 5, N-(1,2,3,4-Tetrahydronaphthalen-1-yl)pyrido[3,2-d]pyrimidin-2-amine] | 7.7 |  |  |  |  |
| Clc1nc(NC2CCCc3ccccc32)c2ncccc2n1 (centres unmarked) [Compound 6, 2-Chloro-N-(1,2,3,4-tetrahydronaphthalen-1-yl)pyrido[3,2-d]pyrimidin-4-amine] | 2.65 |  |  |  |  |
| Clc1ccc(CNc2ncnc3cccnc23)cc1Cl [Compound 14, N-(3,4-Dichlorobenzyl)pyrido[3,2-d]pyrimidin-4-amine] | 1.52 |  |  |  |  |
| N#Cc1nc(NC2CCCc3ccccc32)c2ncccc2n1 (centres unmarked) [Compound 32, 4-(1,2,3,4-tetrahydronaphthalen-1-ylamino)pyrido[3,2-d]pyrimidine-2-carbonitrile] |  | 23.6 | 27.7 |  |  |
| Nc1nc(NC2CCCc3ccccc32)c2ncccc2n1 (centres unmarked) [Compound 33, N^4-(1,2,3,4-tetrahydronaphthalen-1-yl)pyrido[3,2-d]pyrimidine-2,4-diamine] | 71.5 | 30.5 |  | 53.2 |  |
| Clc1cnc2c(NC3CCCc4ccccc43)ncnc2c1 (centres unmarked) [Compound 38, 7-Chloro-N-(1,2,3,4-tetrahydronaphthalen-1-yl)pyrido[3,2-d]pyrimidin-4-amine] | 74 | 31.4 |  | 51.9 |  |
| c1ccc2c(c1)CCCC2Nc1ncnc2ncccc12 (centres unmarked) [Compound 47, N-(1,2,3,4-Tetrahydronaphthalen-1-yl)pyrido[2,3-d]pyrimidin-4-amine] | 7.54 |  |  |  |  |
| Fc1nc(N[C@H]2CCCc3ccccc32)c2ncccc2n1 [Compound 49, (S)-2-Fluoro-N-(1,2,3,4-tetrahydronaphthalen-1-yl)pyrido [3,2-d]pyrimidin-4-amine] |  |  | 75.8 | 37.1 | inhibition at 0.25 µM (250 nM): 83.1% |
| c1ccc2c(c1)OCCC2Nc1ncnc2cccnc12 (centres unmarked) [Compound 62, N-(3,4-dihydro-2H-1-benzopyran-4-yl)pyrido[3,2-d]pyrimidin-4-amine] | 54.4 | 32.1 |  | 46.8 |  |
| Cc1cc(C)n(-c2nc(NC3CCCc4ccccc43)c3ncccc3n2)n1 (centres unmarked) [Compound 67, 2-(3,5-Dimethylpyrazol-1-yl)-N-tetralin-1-yl-pyrido[3,2-d]pyrimidin-4-amine] |  |  | 39.3 | 35.3 | inhibition at 1 µM (1 μM): 82.4% |
| CCCCCCOc1cnc2c(NC3CCCc4ccccc43)ncnc2c1 (centres unmarked) [Compound 74, 7-Hexoxy-N-tetralin-1-yl-pyrido[3,2-d]pyrimidin-3-ium-4-amine chloride] |  | 18.4 | 48.5 |  |  |
| c1ccc2c(Nc3ncnc4cccnc34)cccc2c1 [Compound 86, N-(1-Naphtyl)pyrido[3,2-d]pyrimidin-4-amine] |  | -9.01 | 18 |  |  |
| c1ccc2c(c1)CCC2Nc1ncnc2cccnc12 (centres unmarked) [Compound 87, N-(2,3-dihydro-1H-inden-1-yl)pyrido[3,2-d]pyrimidin-4-amine] |  | 22.9 | 47.4 |  |  |
| COc1cccc2c1CCCC2Nc1ncnc2cccnc12 (centres unmarked) [Compound 88, N-(5-methoxy-1,2,3,4-tetrahydronaphthalen-1-yl)pyrido[3,2-d]pyrimidin-4-amine] |  | 25.8 | 54.8 |  |  |
| Fc1ccc2c(c1)C(Nc1ncnc3cccnc13)CCC2 (centres unmarked) [Compound 90, N-(7-fluoro-1,2,3,4-tetrahydronaphthalen-1-yl)pyrido[3,2-d]pyrimidin-4-amine] |  | 16.1 | 39.9 |  |  |
| CC1(C)CCC(Nc2ncnc3cccnc23)c2ccccc21 (centres unmarked) [Compound 93, N-(4,4-dimethyl-1,2,3,4-tetrahydronaphthalen-1-yl)pyrido[3,2-d]pyrimidin-4-amine] | 71.8 | 45.9 |  | 53.5 |  |
